The source of these data is the supplement of paper PMC10307832.

Experiment in all cases: relative viability (nuclei count vs DMSO), 5 days (fraction); higher = more cells survive
Compound in the test “Etoposide + Vorinostat”: COc1cc([C@@H]2c3cc4c(cc3[C@@H](O[C@@H]3O[C@@H]5CO[C@@H](C)O[C@H]5[C@H](O)[C@H]3O)[C@H]3COC(=O)[C@H]23)OCO4)cc(OC)c1O [Etoposide] + O=C(CCCCCCC(=O)Nc1ccccc1)NO [Vorinostat] (partner 1 µM)
Summed up:
(§1)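 Each reported value is a median over duplicate plates. It expresses relative viability: treated-well nuclei count divided by vehicle-well nuclei count. Lung cancer cell lines in 1536-well plates were dosed by pin tool a day after seeding, alone with one drug or with a fixed anchor-drug dose plus five library-drug doses (not always all listed) in √10 steps, and nuclei were counted after 5 days.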

Compound in the test “Bleomycin + Trametinib”: CC1=C(N=C(N=C1N)[C@H](CC(=O)N)NC[C@@H](C(=O)N)N)C(=O)N[C@@H]([C@H](C2=CN=CN2)OC3C(C(C(C(O3)CO)O)O)OC4C(C(C(C(O4)CO)O)OC(=O)N)O)C(=O)N[C@H](C)[C@H]([C@H](C)C(=O)N[C@@H]([C@@H](C)O)C(=O)NCCC5=NC(=CS5)C6=NC(=CS6)C(=O)NCCC[S+](C)C)O [Bleomycin] + CC(=O)Nc1cccc(-n2c(=O)n(C3CC3)c(=O)c3c(Nc4ccc(I)cc4F)n(C)c(=O)c(C)c32)c1 [Trametinib] (partner 0.02 µM)
Conditions: main component drawn. The gist of the method:
as §1

Compound in the test “Bleomycin + Phenformin”: CC1=C(N=C(N=C1N)[C@H](CC(=O)N)NC[C@@H](C(=O)N)N)C(=O)N[C@@H]([C@H](C2=CN=CN2)OC3C(C(C(C(O3)CO)O)O)OC4C(C(C(C(O4)CO)O)OC(=O)N)O)C(=O)N[C@H](C)[C@H]([C@H](C)C(=O)N[C@@H]([C@@H](C)O)C(=O)NCCC5=NC(=CS5)C6=NC(=CS6)C(=O)NCCC[S+](C)C)O [Bleomycin] + N=C(N)NC(=N)NCCc1ccccc1 [Phenformin] (partner 250 µM)
The settings on record: main component drawn. The gist of the method:
as §1

Compound in the test “Bleomycin + Alpelisib”: CC1=C(N=C(N=C1N)[C@H](CC(=O)N)NC[C@@H](C(=O)N)N)C(=O)N[C@@H]([C@H](C2=CN=CN2)OC3C(C(C(C(O3)CO)O)O)OC4C(C(C(C(O4)CO)O)OC(=O)N)O)C(=O)N[C@H](C)[C@H]([C@H](C)C(=O)N[C@@H]([C@@H](C)O)C(=O)NCCC5=NC(=CS5)C6=NC(=CS6)C(=O)NCCC[S+](C)C)O [Bleomycin] + Cc1nc(NC(=O)N2CCC[C@H]2C(N)=O)sc1-c1ccnc(C(C)(C)C(F)(F)F)c1 [Alpelisib] (partner 2 µM)
The settings on record: main component drawn. The gist of the method:
as §1

With LCLC-97TM1, the relative viability came to 0.783 in the test with Etoposide + Vorinostat (first compound 0.01 µM); 0.896 in the test with Etoposide + Vorinostat (first compound 0.03162 µM); 0.315 in the test with Etoposide + Vorinostat (first compound 0.1 µM); 0.316 in the test with Etoposide + Vorinostat (first compound 0.3162 µM); 0.0855 in the test with Etoposide + Vorinostat (first compound 1 µM); 0.169 with Bleomycin + Trametinib (first compound 0.01 µM). Further, the relative viability was found to be 0.195 in the test with Bleomycin + Trametinib (first compound 0.03162 µM); 0.16 in the test with Bleomycin + Trametinib (first compound 0.1 µM); 0.169 with Bleomycin + Trametinib (first compound 0.3162 µM); 0.106 with Bleomycin + Trametinib (first compound 1 µM); 0.337 in the test with Bleomycin + Phenformin (first compound 0.01 µM); 0.401 with Bleomycin + Phenformin (first compound 0.03162 µM). Besides, the relative viability is 0.241 with Bleomycin + Phenformin (first compound 0.1 µM); 0.192 with Bleomycin + Phenformin (first compound 0.3162 µM); 0.173 with Bleomycin + Phenformin (first compound 1 µM); 0.162 with Bleomycin + Alpelisib (first compound 0.01 µM); 0.186 with Bleomycin + Alpelisib (first compound 0.03162 µM); 0.134 with Bleomycin + Alpelisib (first compound 0.1 µM). Further, the figures for the relative viability with Bleomycin + Alpelisib (first compound 0.3162 µM) and with Bleomycin + Alpelisib (first compound 1 µM) were 0.127 and 0.101, respectively.

LCLC-103H: the relative viability with Etoposide + Vorinostat (first compound 0.01 µM) came out at 0.745; in the test with Etoposide + Vorinostat (first compound 0.03162 µM), 0.94; with Etoposide + Vorinostat (first compound 0.1 µM), 0.663; in the test with Etoposide + Vorinostat (first compound 0.3162 µM), 0.672; in the test with Etoposide + Vorinostat (first compound 1 µM) it was 0.575; in the test with Bleomycin + Trametinib (first compound 0.01 µM), 0.628. Moreover, the relative viability came out at 0.678 with Bleomycin + Trametinib (first compound 0.03162 µM); 0.62 with Bleomycin + Trametinib (first compound 0.1 µM); 0.691 with Bleomycin + Trametinib (first compound 0.3162 µM); 0.507 in the test with Bleomycin + Trametinib (first compound 1 µM); 0.329 with Bleomycin + Phenformin (first compound 0.01 µM); 0.333 with Bleomycin + Phenformin (first compound 0.03162 µM). Further, the relative viability in the test with Bleomycin + Phenformin (first compound 0.1 µM) amounted to 0.294; with Bleomycin + Phenformin (first compound 0.3162 µM) it was 0.274; with Bleomycin + Phenformin (first compound 1 µM), 0.223; with Bleomycin + Alpelisib (first compound 0.01 µM), 0.92; with Bleomycin + Alpelisib (first compound 0.03162 µM), 0.967; in the test with Bleomycin + Alpelisib (first compound 0.1 µM), 1.05. The values for the relative viability with Bleomycin + Alpelisib (first compound 0.3162 µM) and with Bleomycin + Alpelisib (first compound 1 µM) were 0.934 and 0.4, respectively.

Turning to NCI-H522, the relative viability with Etoposide + Vorinostat (first compound 0.01 µM) was 0.934; with Etoposide + Vorinostat (first compound 0.03162 µM) it was 0.981; with Etoposide + Vorinostat (first compound 0.1 µM) it was 0.774; with Etoposide + Vorinostat (first compound 0.3162 µM), 0.841; with Etoposide + Vorinostat (first compound 1 µM), 0.834; with Bleomycin + Trametinib (first compound 0.01 µM), 0.776. Besides, the relative viability with Bleomycin + Trametinib (first compound 0.03162 µM) came to 0.705; with Bleomycin + Trametinib (first compound 0.1 µM), 0.763; with Bleomycin + Trametinib (first compound 0.3162 µM), 0.433; with Bleomycin + Trametinib (first compound 1 µM), 0.379; with Bleomycin + Phenformin (first compound 0.01 µM), 0.561; with Bleomycin + Phenformin (first compound 0.03162 µM), 0.585. Further, the relative viability in the test with Bleomycin + Phenformin (first compound 0.1 µM) worked out at 0.493; with Bleomycin + Phenformin (first compound 0.3162 µM), 0.363; with Bleomycin + Phenformin (first compound 1 µM), 0.416.

As to NCI-H1299, the relative viability in the test with Bleomycin + Alpelisib (first compound 0.01 µM) was 0.978; in the test with Bleomycin + Alpelisib (first compound 0.03162 µM), 1.03; in the test with Bleomycin + Alpelisib (first compound 0.1 µM), 0.923; with Bleomycin + Alpelisib (first compound 0.3162 µM), 0.529; in the test with Bleomycin + Alpelisib (first compound 1 µM) it was 0.416.

Consider NCI-H1563, for which the relative viability in the test with Bleomycin + Phenformin (first compound 0.01 µM) was 0.581; with Bleomycin + Phenformin (first compound 0.03162 µM), 0.658; with Bleomycin + Phenformin (first compound 0.1 µM), 0.64; with Bleomycin + Phenformin (first compound 0.3162 µM), 0.551; with Bleomycin + Phenformin (first compound 1 µM), 0.511; in the test with Bleomycin + Alpelisib (first compound 0.01 µM), 0.831. Moreover, the relative viability was determined as 0.707 with Bleomycin + Alpelisib (first compound 0.03162 µM), 0.678 in the test with Bleomycin + Alpelisib (first compound 0.1 µM), 0.613 with Bleomycin + Alpelisib (first compound 0.3162 µM) and 0.572 with Bleomycin + Alpelisib (first compound 1 µM).

As to NCI-H1623, the relative viability with Bleomycin + Phenformin (first compound 0.01 µM) turned out to be 0.548; in the test with Bleomycin + Phenformin (first compound 0.03162 µM) it was 0.631; in the test with Bleomycin + Phenformin (first compound 0.1 µM), 0.513; with Bleomycin + Phenformin (first compound 0.3162 µM), 0.442; with Bleomycin + Phenformin (first compound 1 µM) it was 0.333.

In the case of NCI-H1648, the relative viability worked out at 0.58 with Etoposide + Vorinostat (first compound 0.03162 µM); 0.306 with Etoposide + Vorinostat (first compound 0.1 µM); 0.3 in the test with Etoposide + Vorinostat (first compound 0.3162 µM); 0.329 in the test with Etoposide + Vorinostat (first compound 1 µM); 0.388 with Bleomycin + Trametinib (first compound 0.01 µM); 0.4 with Bleomycin + Trametinib (first compound 0.03162 µM). For the same cell line, the results for the relative viability with Bleomycin + Trametinib (first compound 0.1 µM), with Bleomycin + Trametinib (first compound 0.3162 µM) and with Bleomycin + Trametinib (first compound 1 µM) were 0.416, 0.269 and 0.295, respectively.

As for NCI-H1650, the relative viability stood at 0.428 in the test with Etoposide + Vorinostat (first compound 0.01 µM); 0.518 in the test with Etoposide + Vorinostat (first compound 0.03162 µM); 0.518 in the test with Etoposide + Vorinostat (first compound 0.1 µM); 0.229 with Etoposide + Vorinostat (first compound 0.3162 µM); 0.219 in the test with Etoposide + Vorinostat (first compound 1 µM); 0.325 with Bleomycin + Trametinib (first compound 0.01 µM). In addition, the relative viability with Bleomycin + Trametinib (first compound 0.03162 µM) was 0.257; with Bleomycin + Trametinib (first compound 0.1 µM), 0.244; in the test with Bleomycin + Trametinib (first compound 0.3162 µM) it was 0.138; with Bleomycin + Trametinib (first compound 1 µM), 0.135; with Bleomycin + Phenformin (first compound 0.01 µM) it was 0.293; with Bleomycin + Phenformin (first compound 0.03162 µM) it was 0.239. Also, the results for the relative viability with Bleomycin + Phenformin (first compound 0.1 µM), with Bleomycin + Phenformin (first compound 0.3162 µM) and with Bleomycin + Phenformin (first compound 1 µM) were 0.206, 0.114 and 0.149, respectively.

NCI-H1703: the relative viability with Bleomycin + Alpelisib (first compound 0.01 µM) came out at 0.32; with Bleomycin + Alpelisib (first compound 0.03162 µM), 0.295; with Bleomycin + Alpelisib (first compound 0.1 µM), 0.278; with Bleomycin + Alpelisib (first compound 0.3162 µM), 0.173; with Bleomycin + Alpelisib (first compound 1 µM), 0.196.

For the cell line NCI-H1792, the relative viability was found to be 0.462 with Bleomycin + Trametinib (first compound 0.01 µM); 0.396 with Bleomycin + Trametinib (first compound 0.03162 µM); 0.356 in the test with Bleomycin + Trametinib (first compound 0.1 µM); 0.317 with Bleomycin + Trametinib (first compound 0.3162 µM); 0.189 with Bleomycin + Trametinib (first compound 1 µM); 0.316 with Bleomycin + Phenformin (first compound 0.01 µM). Besides, the relative viability with Bleomycin + Phenformin (first compound 0.03162 µM) came out at 0.309; in the test with Bleomycin + Phenformin (first compound 0.1 µM) it was 0.195; with Bleomycin + Phenformin (first compound 0.3162 µM), 0.197; in the test with Bleomycin + Phenformin (first compound 1 µM), 0.164; in the test with Bleomycin + Alpelisib (first compound 0.01 µM), 0.631; with Bleomycin + Alpelisib (first compound 0.03162 µM), 0.61. Besides, the relative viability with Bleomycin + Alpelisib (first compound 0.1 µM) worked out at 0.623; with Bleomycin + Alpelisib (first compound 0.3162 µM), 0.228; in the test with Bleomycin + Alpelisib (first compound 1 µM), 0.221.

Take NCI-H2342: the relative viability with Etoposide + Vorinostat (first compound 0.01 µM) was 0.788; with Etoposide + Vorinostat (first compound 0.03162 µM), 0.788; in the test with Etoposide + Vorinostat (first compound 0.1 µM) it was 0.471; in the test with Etoposide + Vorinostat (first compound 0.3162 µM), 0.421; with Etoposide + Vorinostat (first compound 1 µM) it was 0.369; with Bleomycin + Trametinib (first compound 0.01 µM), 0.896. Besides, the relative viability in the test with Bleomycin + Trametinib (first compound 0.03162 µM) turned out to be 0.737; with Bleomycin + Trametinib (first compound 0.1 µM), 0.758; with Bleomycin + Trametinib (first compound 0.3162 µM), 0.577; with Bleomycin + Trametinib (first compound 1 µM), 0.576; in the test with Bleomycin + Phenformin (first compound 0.01 µM), 0.552; in the test with Bleomycin + Phenformin (first compound 0.03162 µM) it was 0.707. The figures for the relative viability in the test with Bleomycin + Phenformin (first compound 0.1 µM), with Bleomycin + Phenformin (first compound 0.3162 µM) and with Bleomycin + Phenformin (first compound 1 µM) were 0.626, 0.441 and 0.528, respectively.

On to SW 900, for which the relative viability was found to be 0.413 with Etoposide + Vorinostat (first compound 0.01 µM); 0.468 with Etoposide + Vorinostat (first compound 0.03162 µM); 0.408 with Etoposide + Vorinostat (first compound 0.1 µM); 0.295 in the test with Etoposide + Vorinostat (first compound 0.3162 µM); 0.167 in the test with Etoposide + Vorinostat (first compound 1 µM); 0.858 with Bleomycin + Trametinib (first compound 0.01 µM). Besides, the relative viability with Bleomycin + Trametinib (first compound 0.03162 µM) was 0.561; with Bleomycin + Trametinib (first compound 0.1 µM) it was 0.453; with Bleomycin + Trametinib (first compound 0.3162 µM), 0.259; in the test with Bleomycin + Trametinib (first compound 1 µM) it was 0.197; with Bleomycin + Phenformin (first compound 0.01 µM) it was 0.592; with Bleomycin + Phenformin (first compound 0.03162 µM), 0.447. Moreover, the relative viability was determined as 0.335 in the test with Bleomycin + Phenformin (first compound 0.1 µM), 0.11 with Bleomycin + Phenformin (first compound 0.3162 µM) and 0.16 with Bleomycin + Phenformin (first compound 1 µM).
